Test results taken from ChEMBL document CHEMBL4825678, “Oshimalides A and B, Sesterterpenes of the Manoalide Class from a Luffariella sp. Deep-Sea Marine Sponge: Application of Asymmetric Dihydroxylation in Structure Elucidation” (2021).
≈ marks a conversion by molar mass, not a printed value.

Test system: Staphylococcus aureus
Test: Antimicrobial activity against staphylococcus aureus 209P JC-1 incubated for 20 hrs by agar dilution method
Type: functional

MIC: 51 µg/mL (≈ 128 µM)
Compound: CC1=CC(=O)C[C@@H](C)[C@@]1(C)CC/C(C)=C/CCC1=CC[C@H](C2=CC(=O)OC2)OC1
